{"source": "paper PMC12822473", "about": "“A Novel FGFR3‐Targeting Antibody‐Drug Conjugate Induces Tumor Cell Apoptosis through the cGAS–STING Pathway in Bladder Cancer” (Advanced Science, 2025)", "target": "T1, MAD2L1 (T24 cells; MAD2L1WT and mutants reconstituted in MAD2L1‐KD T24 cells) (Homo sapiens, UniProt Q13257)", "T1 construct": "MAD2L1 in human T24 cells: native, or WT / mutants re-expressed by lentivirus in knockdown cells; Western blot read-out", "T1 sequence (Q13257 2-205, change not shown)": "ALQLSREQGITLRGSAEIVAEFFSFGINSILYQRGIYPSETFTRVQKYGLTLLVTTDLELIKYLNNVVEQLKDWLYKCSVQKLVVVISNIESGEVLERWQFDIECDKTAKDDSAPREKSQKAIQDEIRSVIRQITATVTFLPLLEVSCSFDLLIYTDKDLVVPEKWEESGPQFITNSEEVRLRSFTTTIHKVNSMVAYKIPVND", "test": "streptavidin pull-down, Western blot and MS", "assay_type": "biochemical", "conditions": "labelled compound; T24 lysate, 4 °C; competed by excess unlabelled A2"}
{"molecule": "CCc1c2c(nc3cccc(F)c13)-c1cc3c(c(=O)n1C2)COC(=O)[C@@]3(CC)OC(=O)CCCC[C@@H]1SC[C@@H]2NC(=O)N[C@@H]21", "note": "[A2‐biotin]", "values": [{"measurement": "streptavidin pull-down, Western blot and MS", "result": "pull‐down/Western blot analysis demonstrated that A2‐biotin directly binds to MAD2L1"}]}
